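Protocol summary: plate cells (96-well), add compound at 5 concentrations, incubate 48 h, interpolate endpoints linearly. GI50 is the concentration that inhibits growth by half.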 Calls of active or inactive are those of the source. Rule as the data show it: active = GI50 up to about 1.1 µM and inactive = higher.
Assays:
Assay in all cases: NCI tumour cell line growth inhibition, 48 h
NCI-H23 = test system: NCI-H23
NCI-H226 = test system: NCI-H226
HCC 2998 = test system: HCC 2998
HOP-92 = test system: HOP-92
ACHN = test system: ACHN
MOLT-4 = test system: MOLT-4
IGROV-1 = test system: IGROV-1
OVCAR-3 = test system: OVCAR-3
HT-29 = test system: HT-29
EKVX = test system: EKVX
BT-549 = test system: BT-549
CCRF-CEM = test system: CCRF-CEM
SF-295 = test system: SF-295
NCI-H522 = test system: NCI-H522
Malme-3M = test system: Malme-3M
SK-OV-3 = test system: SK-OV-3
A549 = test system: A549
HL-60 = test system: HL-60
A498 = test system: A498
786-0 = test system: 786-0
LOX IMVI = test system: LOX IMVI
HOP-62 = test system: HOP-62
TK-10 = test system: TK-10
U-251 = test system: U-251
NCI/ADR-RES = test system: NCI/ADR-RES
OVCAR-4 = test system: OVCAR-4
SK-MEL-5 = test system: SK-MEL-5
MCF7 = test system: MCF7
T47D = test system: T47D
Hs-578T = test system: Hs-578T
OVCAR-5 = test system: OVCAR-5
COLO 205 = test system: COLO 205
DU-145 = test system: DU-145
UACC-257 = test system: UACC-257
HCT-116 = test system: HCT-116
CAKI-1 = test system: CAKI-1
K562 = test system: K562
RXF 393 = test system: RXF 393
M14 = test system: M14
SN12C = test system: SN12C
SF-539 = test system: SF-539
SF-268 = test system: SF-268
MDA-N = test system: MDA-N
KM12 = test system: KM12
SNB-75 = test system: SNB-75
HCT-15 = test system: HCT-15
SK-MEL-28 = test system: SK-MEL-28
MDA-MB-231 = test system: MDA-MB-231
SNB-19 = test system: SNB-19
UO-31 = test system: UO-31
SW-620 = test system: SW-620
NCI-H460 = test system: NCI-H460
OVCAR-8 = test system: OVCAR-8
MDA-MB-435 = test system: MDA-MB-435
UACC-62 = test system: UACC-62
SK-MEL-2 = test system: SK-MEL-2
PC-3 = test system: PC-3
RPMI-8226 = test system: RPMI-8226

## CN(C)CCCNC(CC#N)CCC#N (stereo not drawn)
NCI-H23
  GI50: > 10 µM (inactive)
NCI-H226
  GI50: > 10 µM (inactive)
HCC 2998
  GI50: > 10 µM (inactive)
HOP-92
  GI50: > 10 µM (inactive)
ACHN
  GI50: > 10 µM (inactive)
MOLT-4
  GI50: > 10 µM (inactive)
IGROV-1
  GI50: > 10 µM (inactive)
OVCAR-3
  GI50: > 10 µM (inactive)
HT-29
  GI50: > 10 µM (inactive)
EKVX
  GI50: > 10 µM (inactive)
BT-549
  GI50: > 10 µM (inactive)
CCRF-CEM
  GI50: > 10 µM (inactive)
SF-295
  GI50: > 10 µM (inactive)
NCI-H522
  GI50: > 10 µM (inactive)
Malme-3M
  GI50: > 10 µM (inactive)
SK-OV-3
  GI50: > 10 µM (inactive)
A549
  GI50: > 10 µM (inactive)
HL-60
  GI50: > 10 µM (inactive)
A498
  GI50: > 10 µM (inactive)
786-0
  GI50: > 10 µM (inactive)
LOX IMVI
  GI50: > 10 µM (inactive)
HOP-62
  GI50: > 10 µM (inactive)
TK-10
  GI50: > 10 µM (inactive)
U-251
  GI50: > 10 µM (inactive)
NCI/ADR-RES
  GI50: > 10 µM (inactive)
OVCAR-4
  GI50: > 10 µM (inactive)
SK-MEL-5
  GI50: > 10 µM (inactive)
MCF7
  GI50: > 10 µM (inactive)
T47D
  GI50: > 10 µM (inactive)
Hs-578T
  GI50: > 10 µM (inactive)
OVCAR-5
  GI50: > 10 µM (inactive)
COLO 205
  GI50: > 10 µM (inactive)
DU-145
  GI50: > 10 µM (inactive)
UACC-257
  GI50: > 10 µM (inactive)
HCT-116
  GI50: > 10 µM (inactive)
CAKI-1
  GI50: > 10 µM (inactive)
K562
  GI50: > 10 µM (inactive)
RXF 393
  GI50: > 10 µM (inactive)
M14
  GI50: > 10 µM (inactive)
SN12C
  GI50: > 10 µM (inactive)
SF-539
  GI50: > 10 µM (inactive)
SF-268
  GI50: > 10 µM (inactive)
MDA-N
  GI50: > 10 µM (inactive)
KM12
  GI50: > 10 µM (inactive)
SNB-75
  GI50: > 10 µM (inactive)
HCT-15
  GI50: > 10 µM
SK-MEL-28
  GI50: > 10 µM (inactive)
MDA-MB-231
  GI50: > 10 µM (inactive)
SNB-19
  GI50: > 10 µM (inactive)
UO-31
  GI50: > 10 µM (inactive)
SW-620
  GI50: > 10 µM (inactive)
NCI-H460
  GI50: > 10 µM (inactive)
OVCAR-8
  GI50: > 10 µM (inactive)
MDA-MB-435
  GI50: > 10 µM (inactive)
UACC-62
  GI50: > 10 µM (inactive)
SK-MEL-2
  GI50: > 10 µM (inactive)
PC-3
  GI50: > 10 µM (inactive)

## CC1=C(C)SC(=C2Sc3c(n(C)c(=O)[nH]c3=O)S2)S1
NCI-H23
  GI50: > 100 µM (inactive)
NCI-H226
  GI50: > 100 µM (inactive)
HCC 2998
  GI50: > 100 µM (inactive)
HOP-92
  GI50: > 100 µM (inactive)
ACHN
  GI50: > 100 µM (inactive)
MOLT-4
  GI50: > 100 µM (inactive)
IGROV-1
  GI50: > 100 µM (inactive)
OVCAR-3
  GI50: > 100 µM (inactive)
HT-29
  GI50: > 100 µM (inactive)
EKVX
  GI50: > 100 µM (inactive)
BT-549
  GI50: > 100 µM (inactive)
CCRF-CEM
  GI50: > 100 µM (inactive)
SF-295
  GI50: > 100 µM (inactive)
NCI-H522
  GI50: > 100 µM (inactive)
Malme-3M
  GI50: > 100 µM (inactive)
SK-OV-3
  GI50: > 100 µM (inactive)
A549
  GI50: > 100 µM (inactive)
HL-60
  GI50: > 100 µM (inactive)
A498
  GI50: > 100 µM (inactive)
786-0
  GI50: > 100 µM (inactive)
LOX IMVI
  GI50: > 100 µM (inactive)
HOP-62
  GI50: > 100 µM (inactive)
TK-10
  GI50: > 100 µM (inactive)
U-251
  GI50: > 100 µM (inactive)
NCI/ADR-RES
  GI50: > 100 µM (inactive)
OVCAR-4
  GI50: > 100 µM (inactive)
SK-MEL-5
  GI50: > 100 µM (inactive)
MCF7
  GI50: > 100 µM (inactive)
T47D
  GI50: > 100 µM (inactive)
Hs-578T
  GI50: > 100 µM (inactive)
OVCAR-5
  GI50: > 100 µM (inactive)
COLO 205
  GI50: > 100 µM (inactive)
DU-145
  GI50: > 100 µM (inactive)
UACC-257
  GI50: > 100 µM (inactive)
HCT-116
  GI50: > 100 µM (inactive)
CAKI-1
  GI50: > 100 µM (inactive)
K562
  GI50: > 100 µM (inactive)
RXF 393
  GI50: > 100 µM (inactive)
M14
  GI50: > 100 µM (inactive)
SN12C
  GI50: > 100 µM (inactive)
SF-539
  GI50: > 100 µM (inactive)
SF-268
  GI50: > 100 µM (inactive)
RPMI-8226
  GI50: > 100 µM (inactive)
MDA-N
  GI50: > 100 µM (inactive)
KM12
  GI50: > 100 µM (inactive)
SNB-75
  GI50: > 100 µM (inactive)
HCT-15
  GI50: > 100 µM
SK-MEL-28
  GI50: > 100 µM (inactive)
MDA-MB-231
  GI50: > 100 µM (inactive)
SNB-19
  GI50: > 100 µM (inactive)
UO-31
  GI50: > 100 µM (inactive)
SW-620
  GI50: > 100 µM (inactive)
NCI-H460
  GI50: > 100 µM (inactive)
OVCAR-8
  GI50: > 100 µM (inactive)
MDA-MB-435
  GI50: > 100 µM (inactive)
UACC-62
  GI50: > 100 µM (inactive)
SK-MEL-2
  GI50: > 100 µM (inactive)
PC-3
  GI50: > 100 µM (inactive)

## COc1ccc(C2CC(c3c(O)ccc4ccccc34)=NN2)cc1OC (stereo not drawn)
NCI-H23
  GI50: 3.22 µM (inactive)
NCI-H226
  GI50: 2.54 µM (inactive)
HCC 2998
  GI50: 2.22 µM (inactive)
HOP-92
  GI50: 3.7 µM (inactive)
ACHN
  GI50: 1.86 µM (inactive)
MOLT-4
  GI50: 2.24 µM (inactive)
IGROV-1
  GI50: 4.43 µM (inactive)
OVCAR-3
  GI50: 4.46 µM (inactive)
HT-29
  GI50: 1.89 µM (inactive)
EKVX
  GI50: 6.01 µM (inactive)
BT-549
  GI50: 3.92 µM (inactive)
CCRF-CEM
  GI50: 4.85 µM (inactive)
SF-295
  GI50: 2.55 µM (inactive)
NCI-H522
  GI50: 1.82 µM (inactive)
Malme-3M
  GI50: 4.02 µM (inactive)
SK-OV-3
  GI50: 7.94 µM (inactive)
HL-60
  GI50: 4.42 µM (inactive)
A498
  GI50: 18.5 µM (inactive)
HOP-62
  GI50: 3.86 µM (inactive)
TK-10
  GI50: 3.91 µM (inactive)
U-251
  GI50: 2.7 µM (inactive)
NCI/ADR-RES
  GI50: 2.62 µM (inactive)
OVCAR-4
  GI50: 6.03 µM (inactive)
SK-MEL-5
  GI50: 2.82 µM (inactive)
MCF7
  GI50: 6.37 µM (inactive)
T47D
  GI50: 4.04 µM (inactive)
Hs-578T
  GI50: 2.16 µM (inactive)
OVCAR-5
  GI50: 3.9 µM (inactive)
COLO 205
  GI50: 6.12 µM (inactive)
DU-145
  GI50: 5.71 µM (inactive)
UACC-257
  GI50: 6.81 µM (inactive)
CAKI-1
  GI50: 4.9 µM (inactive)
K562
  GI50: 4.38 µM (inactive)
RXF 393
  GI50: 7.6 µM (inactive)
M14
  GI50: 4.1 µM (inactive)
SN12C
  GI50: 4.32 µM (inactive)
SF-539
  GI50: 4.27 µM (inactive)
SF-268
  GI50: 2.87 µM (inactive)
RPMI-8226
  GI50: 8 µM (inactive)
MDA-N
  GI50: 3.95 µM (inactive)
KM12
  GI50: 3.52 µM (inactive)
SNB-75
  GI50: 1.22 µM (inactive)
HCT-15
  GI50: 4.45 µM
SK-MEL-28
  GI50: 5.16 µM (inactive)
MDA-MB-231
  GI50: 9.79 µM (inactive)
SNB-19
  GI50: 2.1 µM (inactive)
UO-31
  GI50: 2.11 µM (inactive)
NCI-H460
  GI50: 2.92 µM (inactive)
OVCAR-8
  GI50: 2.98 µM (inactive)
MDA-MB-435
  GI50: 2.96 µM (inactive)
UACC-62
  GI50: 3.29 µM (inactive)
SK-MEL-2
  GI50: 6 µM (inactive)
PC-3
  GI50: 3.54 µM (inactive)
